Laboratory results reported in US6528251B2, “Method of managing the chemotherapy of patients who are HIV positive based on the phenotypic drug sensitivity of human HIV strains” (Virco N.V., priority 1996, dated 2003).
Where two headings read alike, the source gives them in different places.

What was measured:
Format in all cases: cell-based, HIV-1
[1] = test system: recombinant virus from patient viral RNA (Example 7, drug-naive patient); assay: Recombinant virus assay (MT4/MTT), drug-naive patient of Example 7; conditions: for IC50: Human immunodeficiency virus 1, Table 3, Example 7 patient virus; for ratio (1)/(2): Table 3, patient mean IC50 / recIIIB IC50, Example 7
Experimental: (§1) RNA was isolated from 100 μl of plasma according to the method described by Boom, R. et al. (1990, supra), and was reverse transcribed with the GeneAmp reverse transcriptase kit (Perkin Elmer) as described by the manufacturer and using an HIV-1 specific downstream primer (OUT3: 5′-CATTGCTCTCCAATTACTGTGATATTTCTCATC-3′; SEQ ID NO: 1). PCR on reverse transcribed RNA was performed with inner and outer primers as described by Kellam, P. and Larder, B. A. (1994, supra). After chloroform extraction and centrifugation on Centricon 100 columns or centrifugation on anion-exchange spin columns (Quiagen), the isolated PCR product was ready for use in the transfection reactions.
(§2) MT4 cells were subcultured at a density of 250,000 cells/ml before transfection (exponential growth phase). Cells were pelleted and resuspended in phosphate buffered saline (PBS) at a concentration of […]. A 0.8 ml portion (2.5 10E6 cells/ml) was used for each transfection. Transfection was performed with the Bio-Rad Gene pulser making use of 0.4 cm electrode cuvettes. Cells were electroporated in the presence of […] of linearised pHIVΔRT plasmid and approximately 5 μg of RT PCR product at 250SF and 300 V, followed by a 30-min incubation at room temperature. Subsequently, 10 ml of fresh culture medium was added to the cell suspension and incubation was performed at 37° C. in a humidified atmosphere of 5% CO2.
(§3) During 7 to 10 days following the transfection, cells were monitored for the appearance of cytopathogenic effect (CPE). In the absence thereof, cells were subcultured in different flasks. Subsequently, culture supernatants of transfected cells were used to create a stock of recombinant virus and stored in 1.5 ml aliquots at −70° C.
(§4) After titration of the new viruses, the stocks were used for antiviral experiments in the presence of serial dilutions of different HIV inhibitors. Titres of the harvested supematants were determined by limited serial dilution titration of virus in MT4 cells.
(§5) Viruses with a useful titre were used in antiviral experiments. For this purpose, 96-well microtitre plates were filled with 100μl of complete culture medium. Subsequently, stock solutions of compounds were added in 25 μl volumes to series of duplicate wells. HIV- and mock-infected cell samples were included for each drug (or drug combination). Exponentially growing MT4 cells were then transferred to the microtitre plates at a density of 150,000 cells/ml. The cell cultures were then incubated at 37° C. in a humidified atmosphere of 5% CO2. Five days after infection, the viability of the mock- and HIV-infected cells was examined spectrophotometrically by the M1T method (Pauwels, R. et al. J. Virol. Meth. (1988), 20: 309-321) as described in Section 6 below.
(§6) To each well of the microtiter plates, 20 μl of a solution of MTT (7.5 mg/ml in PBS) was added. The plates were further incubated at 37° C. for 1 h. Then, 150 μl of medium was removed without disturbing the MT4 cell clusters containing the formazan crystals. Solubilization of the formazan crystals was achieved by adding 100 μl 5% Triton X-100 in acidified isopropanol (5 ml concentrated HCl per liter solvent). Complete dissolution of the formazan crystals was obtained after the plates had been placed on a plate shaker for 10 min. Finally the absorbances were read at two wavelengths (540 and 690 nm). From these optical density (OD) data, 50% inhibitory (IC50) and 50% cytotoxic (CC50) concentrations were derived.
(§7) A drug-naive HIV-infected patient donated plasma whose susceptibility to a number of RT inhibitors was determined according to the protocol set out in Example 1. Recombinant wild type HIV strain recIIIB was used as a reference HIV virus.

[2] = test system: Recombinant wild type HIV strain recIIIB; assay: Antiviral MT4/MTT assay with reference virus recIIIB; conditions: read-out: Anti-HIV-1 activity IC50 (μM) recIIIB ref (2)
Experimental: as §4, §5, §6

[3] = test system: recombinant virus from patient viral RNA (Example 9); assay: Recombinant virus assay (MT4/MTT), patient of Example 9 (multiple nucleoside analogue RT-inhibitors); conditions: for IC50: Human immunodeficiency virus 1, Table 5, Example 9 patient virus; for ratio (1)/(2): Table 5, patient mean IC50 / recIIIB IC50, Example 9
Experimental: as §1, §2, §3, §4, §5, §6
as §7, with “An” for “A drug-naive”, “patient with a therapy history including multiple nucleoside analogue RT-inhibitors” for “patient”

[4] = test system: recombinant virus from patient viral RNA (Example 8); assay: Recombinant virus assay (MT4/MTT), patient of Example 8 (therapy history AZT, 3TC and loviride); conditions: for IC50: Human immunodeficiency virus 1, Table 4, Example 8 patient virus; for ratio (1)/(2): Table 4, patient mean IC50 / recIIIB IC50, Example 8
Experimental: as §1, §2, §3, §4, §5, §6
(§8) An HIV-infected patient with a therapy history including AZT, 3TC and loviride donated plasma whose susceptibility to a number of RT inhibitors was determined according to the protocol set out in Example 1. Recombinant wild type HIV strain recIIIB was used as a reference HIV virus.

[5] = test system: recombinant virus from patient viral RNA (Example 5, 3TC resistant HIV strains); assay: Recombinant virus assay (MT4/MTT), patient of Example 5 (AZT, then AZT+3TC therapy); conditions: for IC50: Human immunodeficiency virus 1, Table 1, Example 5 patient virus; for ratio (1)/(2): Table 1, patient mean IC50 / recIIIB IC50, Example 5
Experimental: as §1, §2, §3, §4, §5, §6
An HIV infected patient who received AZT from December 1989 until an undocumented later date, and switched to a combined chemotherapy of AZT+3TC (1:1) from February 1994 until October 1995 donated plasma whose susceptibility to a number of RT inhibitors was determined according to the above described protocol of Example 1. Recombinant wild type HIV strain recIIIB was used in said protocol as a reference HIV virus.

[6] = test system: recombinant virus from patient viral RNA (Example 10, drug-naive patient); assay: Recombinant virus assay (MT4/MTT), drug-naive patient of Example 10; conditions: for IC50: Human immunodeficiency virus 1, Table 6, Example 10 patient virus; for ratio (1)/(2): Table 6, patient mean IC50 / recIIIB IC50, Example 10
Experimental: as §1, §2, §3, §4, §5, §6
A drug-naive HIV-infected patient donated plasma whose susceptibility to a number of RT inhibitors and protease inhibitors was determined according to the protocol set out in Example 1. Recombinant wild type HIV strain recIIIB was used as a reference HIV virus.

[7] = test system: recombinant virus from patient viral RNA (Example 11); assay: Recombinant virus assay (MT4/MTT), patient of Example 11 (therapy history RT and protease inhibitors); conditions: for IC50: Human immunodeficiency virus 1, Table 7, Example 11 patient virus; for ratio (1)/(2): Table 7, patient mean IC50 / recIIIB IC50, Example 11
Experimental: as §1, §2, §3, §4, §5, §6
as §8, with “HIV infected” for “HIV-infected”, “RT” for “AZT, 3TC”, “protease inhibitors” for “loviride”, “RT inhibitors and protease” for “RT”, “recIIIb” for “recIIIB”

[8] = test system: recombinant virus from patient viral RNA (Example 12); assay: Recombinant virus assay (MT4/MTT), patient of Example 12 (therapy history RT and protease inhibitors); conditions: for susceptibility of the patient's HIV strain (in words): Example 12 patient, conclusion from Table 8; for IC50: Human immunodeficiency virus 1, Table 8, Example 12 patient virus; for ratio (1)/(2): Table 8, patient mean IC50 / recIIIB IC50, Example 12
Experimental: as §1, §2, §3, §4, §5, §6
An HIV infected patient with a therapy history including RT and protease inhibitors donated plasma whose susceptibility to a number of RT inhibitors and protease inhibitors was determined according to the protocol set out in Example 1.

[9] = MT4 cells, read-out: Anti-HIV-1 activity IC50 (μM) Exp. 1
[10] = MT4 cells, read-out: Anti-HIV-1 activity IC50 (μM) Exp. 2
[11] = mean, read-out: Anti-HIV-1 activity IC50 (μM) Mean (1)
[12] = Human immunodeficiency virus 1, Table 1, reference run of Example 5
[13] = Human immunodeficiency virus 1, Table 3, reference run of Example 7
[14] = Human immunodeficiency virus 1, Table 4, reference run of Example 8
[15] = Human immunodeficiency virus 1, Table 5, reference run of Example 9
[16] = mean of Exp. 1 and 2, read-out: Anti-HIV-1 activity IC50 (μM) Mean (1)
[17] = Human immunodeficiency virus 1, Table 6, reference run of Example 10
[18] = Human immunodeficiency virus 1, Table 7, reference run of Example 11
[19] = Human immunodeficiency virus 1, Table 8, reference run of Example 12

Structure (SMILES)	IC50 [1, 9] [µM]	IC50 [1, 10] [µM]	IC50 [1, 11] [µM]	ratio (1)/(2) [1]	IC50 [2, 12] [µM]	IC50 [2, 13] [µM]	IC50 [2, 14] [µM]	IC50 [2, 15] [µM]	IC50 [3, 9] [µM]	IC50 [3, 10] [µM]	IC50 [3, 11] [µM]	ratio (1)/(2) [3]	IC50 [4, 9] [µM]	IC50 [4, 10] [µM]	IC50 [4, 11] [µM]	ratio (1)/(2) [4]	IC50 [5, 9] [µM]	IC50 [5, 10] [µM]	IC50 [5, 16] [µM]	ratio (1)/(2) [5]	further results
CC(C)=CCN1Cc2c(Cl)ccc3[nH]c(=S)n(c23)C[C@@H]1C [tivirapine]	0.042	0.049	0.046	2	0.01	0.021	0.021	0.042	0.052	0.043	0.048	1	1.63	1.6	1.61	78	0.019	0.018	0.019	1.5	–
CC(C)c1nc(CN(C)C(=O)N[C@H](C(=O)N[C@@H](Cc2ccccc2)C[C@H](O)[C@H](Cc2ccccc2)NC(=O)OCc2cncs2)C(C)C)cs1 [ritonavir]	–	–	–	–	–	–	–	–	–	–	–	–	–	–	–	–	–	–	–	–	IC50 [6, 9]: 0.022 µM; IC50 [6, 10]: 0.017 µM; IC50 [6, 11]: 0.019 µM; ratio (1)/(2) [6]: 0.6; IC50 [2, 17]: 0.033 µM; IC50 [2, 18]: 0.062 µM; IC50 [2, 19]: 0.033 µM; susceptibility of the patient's HIV strain (in words) ([7]; Example 11 patient, conclusion from Table 7): decreased susceptibilty; IC50 [7, 9]: 1.2 µM; IC50 [7, 10]: 1.74 µM; IC50 [7, 11]: 1.47 µM; ratio (1)/(2) [7]: 24; susceptibility of the patient's HIV strain (in words) [8]: decreased susceptibility; IC50 [8, 9]: 1.61 µM; IC50 [8, 10]: 1.53 µM; IC50 [8, 11]: 1.57 µM; ratio (1)/(2) [8]: 47
CC(C)(C)NC(=O)[C@@H]1C[C@@H]2CCCC[C@@H]2CN1C[C@@H](O)[C@H](Cc1ccccc1)NC(=O)[C@H](CC(N)=O)NC(=O)c1ccc2ccccc2n1 [saquinavir]	–	–	–	–	–	–	–	–	–	–	–	–	–	–	–	–	–	–	–	–	IC50 [6, 9]: 0.003 µM; IC50 [6, 10]: 0.003 µM; IC50 [6, 11]: 0.003 µM; ratio (1)/(2) [6]: 0.4; IC50 [2, 17]: 0.006 µM; IC50 [2, 18]: 0.012 µM; IC50 [2, 19]: 0.006 µM; IC50 [7, 9]: 0.014 µM; IC50 [7, 10]: 0.015 µM; IC50 [7, 11]: 0.014 µM; ratio (1)/(2) [7]: 1; susceptibility of the patient's HIV strain (in words) [8]: decreased susceptibility; IC50 [8, 9]: 0.35 µM; IC50 [8, 10]: 0.352 µM; IC50 [8, 11]: 0.351 µM; ratio (1)/(2) [8]: 56
CC(=O)c1ccc(C)cc1NC(C(N)=O)c1c(Cl)cccc1Cl (stereo not shown) [loviride]	0.035	0.025	0.03	1	0.05	0.024	0.037	0.065	0.064	0.058	0.061	0.9	> 100	> 100	> 100	>2717	0.1	0.12	0.11	2	–
